Where a name gives a salt, the structure may show the parent alone.
Row | Compound | melting point
1 | COc1ccc(-c2cc3ccccc3c(NCCN3CCOCC3)n2)cc1 (as salt: hydrochloride) [Example 323, 1-[2-(4-morpholinyl)ethyl]amino-3-(4-methoxyphenyl)isoquinoline dihydrochloride] | 135 to 136 °C
2 | COc1ccc(-c2cc3ccccc3c(N3CCC(N4CCCCC4)CC3)n2)cc1 (as salt: hydrochloride) [Example 325, 1-[4-(piperidin-1-yl)piperidine-1-yl]-3-(4-methoxyphenyl)isoquinoline dihydrohcloride] | 223 to 238 °C
3 | CCN1CCN(c2nc(-c3ccc4c(c3)OCCO4)cc3ccccc23)CC1 (as salt: hydrochloride) [Example 332, 1-(4-ethylpiperazin-1-yl)-3-(3,4-ethylenedioxyphenyl)isoquinoline dihydrochloride] | 141 to 143 °C
4 | CCN1CCN(c2nc(-c3ccc(CCCOC)cc3)cc3ccccc23)CC1 (as salt: hydrochloride) [Example 333, 1-(4-ethylpiperazin-1-yl)-3-[4-(3-(methoxypropyl)phenyl]isoquinolinedihydrochloride] | 191 to 192 °C (dec.)
5 | CCN1CCN(c2nc(-c3cc(OC)ccn3)cc3ccccc23)CC1 (as salt: hydrochloride) [Example 335, 1-(4-ethylpiperazin-1-yl)-3-(4-methoxypyridin-2-yl)isoquinoline dihydrochloride] | 172 to 173 °C (dec.)
6 | CCN1CCN(c2nc(-c3ccc(OCC(O)CO)cc3)cc3ccccc23)CC1 (stereo not drawn) (as salt: hydrochloride) [Example 337, 1-(4-ethylpiperazin-1-yl)-3-[4-(2,3-dihydroxypropoxy)phenyl]isoquinoline dihydrochloride] | 133 to 135 °C (dec.)
7 | CCN1CCN(c2nc(-c3ccc(OC(F)(F)F)cc3)cc3ccccc23)CC1 (as salt: hydrochloride) [Example 339, 1-(4-ethylpiperazin-1-yl)-3-(4-trifluoromethoxyphenyl)isoquinoline dihydrochloride] | 113 to 115 °C
8 | CCN1CCN(c2nc(-c3ccc(OCCO)c(OC)c3)cc3ccccc23)CC1 (as salt: hydrochloride) [Example 340, 1-(4-ethylpiperazin-1-yl)-3-[4-(2-hydroxyethoxy)-3-methoxyphenyl]isoquinoline dihydrochloride] | 128 to 129 °C
9 | CCN1CCN(c2nc(-c3ccc(SC)cc3)cc3ccccc23)CC1 (as salt: hydrochloride) [Example 341, 1-(4-ethylpiperazin-1-yl)-3-(4-methylthiophenyl)isoquinoline dihdyrochloride] | 215 to 218 °C (dec.)
10 | CCN1CCN(c2nc(-c3ccc(S(C)(=O)=O)cc3)cc3ccccc23)CC1 (as salt: hydrochloride) [Example 342, 1-(4-ethylpiperazin-1-yl)-3-(4-methylsulfonylphenyl)isoquinoline dihydrochloride] | 216.5 to 218 °C (dec.)
11 | CCN1CCN(c2nc(-c3ccc(OCC(O)COC)cc3)cc3ccccc23)CC1 (stereo not drawn) (as salt: hydrochloride) [Example 343, 1-(4-ethylpiperazin-1-yl)-3-[4-(2-hydroxy-3-methoxypropoxy)phenyl]isoquinoline dihydrochloride] | 216.5 to 218 °C (dec.)
12 | CCN1CCN(c2nc(-c3ccc(C(=O)NCCO)cc3)cc3ccccc23)CC1 (as salt: hydrochloride) [Example 346, 1-(4-ethylpiperazin-1-yl)-3-{4-(N-(2-hydroxyethyl)carbamoyl]phenyl}isoquinoline dihydrochloride] | 154 to 155 °C
13 | CCN1CCN(c2nc(-c3ccc(S(=O)(=O)NCCO)cc3)cc3ccccc23)CC1 (as salt: hydrochloride) [Example 347, 1-(4-ethylpiperazin-1-yl)-3-{4-[N-(2-hydroxyethyl)sulfamoyl]phenyl}isoquinoline dihydrochloride] | 136 to 138.5 °C
14 | CCN1CCN(c2nc(-c3ccc(C(C)O)cc3)cc3ccccc23)CC1 (stereo not drawn) (as salt: hydrochloride) [Example 348, 1-(4-ethylpiperazin-1-yl)-3-[4-(1-hydroxyethyl)phenyl]isoquinoline dihydrochloride] | 135.5 to 136 °C
15 | CCCS(=O)(=O)c1ccc(-c2cc3ccccc3c(N3CCN(CC)CC3)n2)cc1 (as salt: hydrochloride) [Example 349, 1-(4-ethylpiperazin-1-yl)-3-[4-propylsulfonyl)phenyl]isoquinoline dihydrochloride] | 240.5 to 242 °C (dec.)
16 | CCN1CCN(c2nc(-c3ccc(S(=O)(=O)CCCOC)cc3)cc3ccccc23)CC1 (as salt: hydrochloride) [Example 350, 1-(4-ethylpiperazin-1-yl)-3-{4-[(3-methoxypropyl)sulfonyl]phenyl}isoquinoline] | 177.5 to 180 °C
17 | CCN1CCN(c2nc(-c3ccc(CCO)cc3)cc3ccccc23)CC1 (as salt: hydrochloride) [Example 351, 1-(4-ethylpiperazin-1-yl)-3-[4-(2-hydroxyethyl)phenyl]isoquinoline dihydrochloride] | 134 to 136 °C

Row | Compound | melting point
18 | CCN1CCN(c2nc(-c3ccc(S(=O)(=O)CCCO)cc3)cc3ccccc23)CC1 (as salt: hydrochloride) [Example 352, 1-(4-ethylpiperazin-1-yl)-3-[4-(3-hydroxypropyl)sulfonylphenyl]isoquinoline dihydrochloride] | 213 to 215 °C (dec.)
19 | CCCNS(=O)(=O)c1ccc(-c2cc3ccccc3c(N3CCN(CC)CC3)n2)cc1 (as salt: hydrochloride) [Example 353, 1-(4-ethylpiperazin-1-yl)-3-[4-(N-propylsulfamoyl)phenyl]isoquinoline dihydrochloride] | 226.5 to 227.5 °C (dec.)
20 | CCN1CCN(c2nc(-c3ccc(S(=O)(=O)NCCOC)cc3)cc3ccccc23)CC1 (as salt: hydrochloride) [Example 354, 1-(4-ethylpiperazin-1-yl)-3-{4-[N-(2-methoxyethyl)sulfamoyl]phenyl}isoquinoline dihydrochloride] | 222 to 224 °C (dec.)
21 | CCN1CCN(c2nc(-c3ccc(S(=O)(=O)CCCF)cc3)cc3ccccc23)CC1 (as salt: hydrochloride) [Example 355, 1-(4-ethylpiperazin-1-yl)-3-[4-(3-fluoropropyl)sulfonylphenyl]isoquinoline dihydrochloride] | 224 to 225 °C (dec.)
22 | CCN1CCN(c2nc(-c3ccc(S(=O)(=O)N4CCCC4)cc3)cc3ccccc23)CC1 (as salt: hydrochloride) [Example 356, 1-(4-ethylpiperazin-1-yl)-3-[4-(pyrrolidin-1-yl)sulfonylphenyl]isoquinoline dihydrochloride] | 238.5 to 240 °C (dec.)
23 | CCNS(=O)(=O)c1ccc(-c2cc3ccccc3c(N3CCN(CC)CC3)n2)cc1 (as salt: hydrochloride) [Example 357, 1-(4-ethylpiperazin-1-yl)-3-[4-(N-ethylsulfamoyl)phenyl]isoquinoline dihydrochloride] | 147 to 149 °C
24 | CCCN(C)S(=O)(=O)c1ccc(-c2cc3ccccc3c(N3CCN(CC)CC3)n2)cc1 (as salt: hydrochloride) [Example 358, 1-(4-ethylpiperazin-1-yl)-3-[4-(N-methyl-N-propylsulfamoyl)phenyl]isoquinoline dihydrochloride] | 199.5 to 200.5 °C (dec.)
25 | CCN1CCN(c2nc(-c3ccc(S(=O)(=O)N(CC)CC)cc3)cc3ccccc23)CC1 (as salt: hydrochloride) [Example 359, 1-(4-ethylpiperazin-1-yl)-3-[4-(N,N-diethylsulfamoyl)phenyl]isoquinoline dihydrochloride] | 210 to 212 °C (dec.)
26 | CCC(C)NS(=O)(=O)c1ccc(-c2cc3ccccc3c(N3CCN(CC)CC3)n2)cc1 (stereo not drawn) (as salt: hydrochloride) [Example 360, 1-(4-ethylpiperazin-1-yl)-3-{4-[N-(1-methylpropyl)sulfamoyl]phenyl}isoquinoline dihydrochloride] | 155 to 156 °C
27 | CCN1CCN(c2nc(-c3ccc(S(=O)(=O)NC)cc3)cc3ccccc23)CC1 (as salt: hydrochloride) [Example 361, 1-(4-ethylpiperazin-1-yl)-3-[4-(N-methylsulfamoyl)phenyl]isoquinoline dihydrochloride] | 170 to 172 °C
28 | CCN1CCN(c2nc(-c3ccc(S(=O)(=O)N(C)C)cc3)cc3ccccc23)CC1 (as salt: hydrochloride) [Example 362, 1-(4-ethylpiperazin-1-yl)-3-[4-(N,N-dimethylsulfamoyl)phenyl]isoquinoline dihydrochloride] | 155 to 156 °C
29 | CCN1CCN(c2nc(-c3ccc(S(=O)(=O)NC4CC4)cc3)cc3ccccc23)CC1 (as salt: hydrochloride) [Example 363, 1-(4-ethylpiperazin-1-yl)-3-[4-(N-cyclopropylsulfamoyl)phenyl]isoquinoline dihydrochloride] | 158 to 159.5 °C
30 | CCNC(=O)c1ccc(-c2cc3ccccc3c(N3CCN(CC)CC3)n2)cc1 (as salt: hydrochloride) [Example 364, 1-(4-ethylpiperazin-1-yl)-3-[4-(N-ethylcarbamoyl)phenyl]isoquinoline dihydrochloride] | 160 to 160.5 °C
31 | CCN1CCN(c2nc(-c3ccc(C(=O)NC)cc3)cc3ccccc23)CC1 (as salt: hydrochloride) [Example 365, 1-(4-ethylpiperazin-1-yl)-3-[4-(N-methylcarbamoyl)phenyl]isoquinoline dihydrochloride] | 161.5 to 163 °C
32 | CCN1CCN(c2nc(-c3ccc(S(=O)(=O)CC)cc3)cc3ccccc23)CC1 (as salt: hydrochloride) [Example 366, 1-(4-ethylpiperazin-1-yl)-3-[4-(ethylsulfonyl)phenyl]isoquinoline dihydrochloride] | 150 to 151.5 °C
33 | CCN1CCN(c2nc(-c3ccc(OCCOC)c(F)c3)cc3ccccc23)CC1 (as salt: hydrochloride) [Example 367, 1-(4-ethylpiperazin-1-yl)-3-(3-fluoro-4-methoxyethoxyphenyl)isoquinoline dihydrochloride] | 112.5 to 114 °C

From patent US6875761B2 (Eisai Co., Ltd., priority 1997, dated 2005)
